Results: PubChem BioAssay AID1996
Values after ≈ are worked out from the molar mass of the structure shown. Non-standard residues stand in square brackets, D forms with d. Residues, ends and D or L forms follow the SMILES beside them. ξ: configuration not given here. *: point of attachment. Tos = Cc1ccc(S(=O)(=O)*)cc1; ξP = O=C(O)C1CCCN1

conditions: buffer; pH 7.4; 200.0 µM

| Structure (SMILES) | solubility kinetic [µg/mL] |
| --- | --- |
| c1coc(-c2ccnc(-c3ccncc3)n2)c1 | > 33.5 |
| Cc1cc(-c2ccccc2)c2c(n1)sc1c(O)cc(=O)[nH]c12 | > 46.3 |
| COc1cc2c(cc1OC)C(c1ccc(O)cc1)NCC2 (stereo unspecified) | > 42.8 |
| CCC(=O)Nc1ccc(S(=O)(=O)Nc2nccs2)cc1 | 45.5 (≈ 146 µM) |
| O=S(=O)(NCc1ccc2c(c1)OCO2)c1ccc(F)cc1 | > 46.4 |
| O=C1CN(C(=O)c2ccc(Cl)c([N+](=O)[O-])c2)c2ccccc2N1 | > 49.8 |
| O=C(COC(=O)c1ccc(S(=O)(=O)N2CCCCC2)cc1)NCc1ccccc1 | 3.6 (≈ 8.64 µM) |
| O=C(CSCc1c(F)cccc1Cl)NCCSCc1ccco1 | 36.8 (≈ 98.4 µM) |
| COc1ccccc1CNC(=O)c1cccnc1 | > 36.3 |
| Brc1ccccc1C1N=C(c2ccccc2)NO1 (stereo unspecified) | 10.5 (≈ 34.6 µM) |
| COC(=O)c1ccc(CNC(=O)CCC(=O)N2CCOCC2)cc1 | > 50.2 |
| COC(=O)c1cc(C)nc(Sc2ccccc2NC(C)=O)n1 | 41.6 (≈ 131 µM) |
| CC(C)(C)N=Cc1c(O)ccc2oc3c(c12)CCCC3 | 6.5 (≈ 24 µM) |
| CCCc1nc2oc3c(NCC(C)O)ncnc3c2c2c1CCCC2 (stereo unspecified) | 0.4 (≈ 1.17 µM) |
| COc1ccc(C(=O)N(c2ccccn2)C2CCCCC2)c(OC)c1 | 49.9 (≈ 147 µM) |
| Cc1cccc(OCC(=O)NCc2nc(-c3ccccc3)no2)c1 | 3.1 (≈ 9.59 µM) |
| Cc1ccc(N2C(=O)CC(Nc3cccc4ccccc34)C2=O)cc1 (stereo unspecified) | 3.8 (≈ 11.5 µM) |
| COc1ccc(CCNC(=O)Nc2ccc(F)cc2F)cc1OC | 1.6 (≈ 4.76 µM) |
| S=C(NCc1ccccc1)Nc1ccc(Oc2ccccc2)cc1 | 6.8 (≈ 20.3 µM) |
| Cc1cc([N+](=O)[O-])ccc1NC(=O)CCC(=O)N1CCCC1 | > 45.8 |
| CCc1ccc(C(C)NC(=O)c2cccs2)cc1 (stereo unspecified) | 9 (≈ 34.7 µM) |
| Cc1ccccc1NC(=S)N(Cc1ccccc1)Cc1cccnc1 | 43.9 (≈ 126 µM) |

| Structure (SMILES) | solubility kinetic [µg/mL] |
| --- | --- |
| Cn1c(SCc2cccc(C#N)c2)nc2ccccc2c1=O | 0.4 (≈ 1.3 µM) |
| CCNc1nc(OC)nc(N(OC)S(=O)(=O)c2ccc(C)cc2)n1 | > 53 |
| CCN(CC(=O)Nc1c(F)cccc1F)C(=O)CCCc1c[nH]c2ccccc12 | 7.4 (≈ 18.5 µM) |
| Cc1ccc(NC(=O)c2cc3ccccc3o2)cc1Cl | < 0.6 |
| COc1ccccc1NC(=O)NCC1(N(C)C)CCCCC1 | > 45.8 |
| O=C(O)CSc1nc(-c2ccccc2)nc2c1CCCC2 | > 45.1 |
| Cl.OCCNCc1cccc(Br)c1 | > 40 |
| COc1ccccc1C(=O)N1CCC(N2CCN(c3ccccc3)CC2)CC1 | 41.5 (≈ 109 µM) |
| CC1C(c2ccccc2)N(C)C(c2ccccc2)CC1(O)c1ccc(F)cc1 (stereo unspecified) | 5.7 (≈ 15.2 µM) |
| CC(C)NC(=O)NC(=O)COC(=O)c1cc[n+]([O-])cc1 | > 42.2 |
| Cc1ccccc1N1C(=O)CSC1=C(C#N)C#N | > 38.3 |
| Cc1cc(OC2CCCCC2)nc(NCc2ccccc2)n1 | 0.3 (≈ 1.01 µM) |
| O=C(CSc1ncn[nH]1)NCc1ccc2c(c1)OCO2 | > 43.8 |
| COC(=O)c1c(NC(=O)c2ccoc2C)sc(C)c1C | < 0.6 |
| COc1cccc(Nc2nc(C)nc3c2oc2ccccc23)c1 | 0.3 (≈ 0.983 µM) |
| COc1ccc(-c2cncnc2-c2ccc(OC)cc2O)cc1 | 38.6 (≈ 125 µM) |
| Cc1ccccc1NC(=S)c1ccc2ccccc2n1 | < 0.3 |
| Cc1cccc(NC(=O)CCCn2c(=S)[nH]c3ccccc3c2=O)c1 | 0.3 (≈ 0.849 µM) |
| CCSCc1nc(N)nc(NCCc2ccccc2)n1 | 34.7 (≈ 120 µM) |
| O=C(Nc1ccc(NC(=O)c2cccs2)cc1)c1cccnc1 | 0.4 (≈ 1.24 µM) |
| CC(=O)c1ccc(NC(=O)Nc2ccncc2)cc1 | > 38.3 |
| CCC1OC(c2ccc([N+](=O)[O-])cc2)=Nc2ccccc21 (stereo unspecified) | 3.1 (≈ 11 µM) |

| Structure (SMILES) | solubility kinetic [µg/mL] |
| --- | --- |
| COC(=O)Cc1c(O)ccn(CCc2c[nH]c3ccc(OC)cc23)c1=O | > 53.5 |
| COc1ccccc1OCCCCn1c(C(C)O)nc2ccccc21 (stereo unspecified) | 49.9 (≈ 147 µM) |
| Nc1nonc1C(=O)NCCNC(=O)c1ccc(Cl)cc1 | > 46.5 |
| Cc1cc(=O)n(Cc2ccc(OC(C)C)cc2)c(=S)[nH]1 | 13.8 (≈ 47.5 µM) |
| O=C(NCCN1CCOCC1)c1cc2ccccc2oc1=O | > 45.3 |
| O=C(O)c1ccc(/C=N/O)cc1 | > 24.8 |
| Nc1cc(=O)[nH]c(SCC(=O)c2ccc(O)cc2O)n1 | > 44 |
| CCC(=O)N(Cc1cc2ccccc2[nH]c1=O)c1ccccc1OC | 32.2 (≈ 95.7 µM) |
| Cl.O=C(CCN1CCOCC1)Nc1ccc(Cl)cc1 | > 45.8 |
| Cc1csc(SC(C)C(=O)Nc2ccccc2C)n1 (stereo unspecified) | > 43.9 |
| COc1cccc(N=Cc2c(O)n(Cc3ccco3)c(=O)[nH]c2=O)c1 | 6.1 (≈ 17.9 µM) |
| CC(CCc1ccccc1)NC(=O)CN(C)Cc1ccccc1F (stereo unspecified) | 48.4 (≈ 147 µM) |
| O=C1COc2ccc(S(=O)(=O)N3CCCCC3)cc2N1 | 43.3 (≈ 146 µM) |
| Cc1cc(C)cc(NC(=O)NCc2c(-c3ccccc3)noc2C)c1 | 0.8 (≈ 2.39 µM) |
| CC1(C)CC2CC(C)(CN2C(=O)COC(=O)c2ccc(NC(=O)CC#N)cc2)C1 (stereo unspecified) | 7.6 (≈ 19.1 µM) |
| CCn1c(C)c(C)c2cc(C(=O)NC3CCCCCC3)ccc21 | 0.5 (≈ 1.6 µM) |
| Br.C1=C(c2ccco2)N2CCN=C2S1 | 38.8 |
| CCCCNC(=S)N1CCN(c2ccccc2Cl)CC1 | 13.1 (≈ 42 µM) |
| Cc1ccc(S(=O)(=O)NCC(=O)N2CCCC2C(=O)O)cc1 (stereo not drawn) (Tos-Gly-[ξP]-OH) | > 49 |
| Cc1noc(C)c1C(=O)NCc1ccccc1Br | 44.6 (≈ 144 µM) |
| Cc1ccc(NC(=O)CNCc2ccccc2)c(Br)c1 | 34.3 (≈ 103 µM) |
| COc1ccc(C(=O)C(C)OC(=O)c2sc(C)nc2C)cc1 (stereo unspecified) | 35.8 (≈ 112 µM) |

| Structure (SMILES) | solubility kinetic [µg/mL] |
| --- | --- |
| COc1ccc(NC(=O)/C(C#N)=C/c2ccc[nH]2)c(OC)c1 | 0.3 (≈ 1.01 µM) |
| COc1ccccc1NC(=O)COc1ccc2ccccc2c1 | 2.5 (≈ 8.13 µM) |
| CCOC(=O)Cn1c(C)cc(COC)c(C#N)c1=O | > 39.6 |
| CC(=O)c1ccc(OC(C)C(=O)NCC2(N3CCOCC3)CCCCC2)cc1 (stereo unspecified) | > 58.3 |
| O=C1CN(S(=O)(=O)c2ccccc2)CCN1 | > 36 |
| O=C(Nc1ccccc1)Nc1ccccc1Br | 2.1 (≈ 7.21 µM) |
| COc1cc2c(cc1OC)C(C)N(C(=O)Nc1ccccc1)CC2 (stereo unspecified) | 39 (≈ 119 µM) |
| CN(C)S(=O)(=O)c1cccc(C(=O)N2CCN(C(=O)C3CCCO3)CC2)c1 (stereo unspecified) | > 59.3 |
| CCN(CC)C(=O)CSc1nnc([C@@H](N)C(C)C)o1.Cl | > 48.4 |
| CCN(c1cccc(C)c1)S(=O)(=O)c1ccc(OC)c([N+](=O)[O-])c1 | < 0.4 |
| NS(=O)(=O)c1ccc2c(c1)C(=NO)c1cc(S(N)(=O)=O)ccc1-2 | 4.6 (≈ 13 µM) |
| COc1cc2c(cc1OC)C(c1ccc(Br)cc1)NC(=O)C2 (stereo unspecified) | 45.2 (≈ 125 µM) |
| CCN(CC)CCCNc1ncnc2scc(-c3ccc(F)cc3)c12 | > 53.8 |
| O=[N+]([O-])c1cc(Cl)ccc1N1CCOCC1 | 24.4 (≈ 101 µM) |
| O=C(O)c1cccc2c1C(=O)N(C1CCCC1)C2 | 34 (≈ 139 µM) |
| O=C(NC(=O)N1CCCCCC1)c1ccc(Cl)cc1 | > 42.1 |
| O=S(=O)(Nc1ccncc1)c1cc(Cl)c(Cl)cc1Cl | 1.6 (≈ 4.74 µM) |
| CC(=O)c1ccc(N2CCN(C(=O)Nc3ccc(Cl)cc3)CC2)cc1 | 1.3 (≈ 3.63 µM) |
| CCc1ccc(C(=O)CN2C(=O)NC3(CCc4ccccc43)C2=O)cc1 (stereo unspecified) | 6.5 (≈ 18.7 µM) |
| CC1CC2(C)CC(C)C1(COC(=O)Nc1ccccc1)CO2 (stereo unspecified) | 44.6 (≈ 147 µM) |
